Results reported in the NIST ThermoML archive (doi:10.1016/j.jct.2009.05.009).

Assay: xn = mol fraction of the nth substance listed
Conditions: 101.3 kPa, Liquid, Vibrating tube method

CCOS(=O)(=O)[O-].CCn1cc[n+](C)c1 [1-ethyl-3-methylimidazolium ethyl sulfate] + O
mass density [kg/m3]
Conditions	293.15 K	298.15 K	303.15 K	308.15 K	313.15 K	318.15 K
x2 = 0	1242.4	1239.4	1236.3	1233.3	1230.2	1227.2
x2 = 0.0514	1241.4	1238.3	1235.2	1232.2	1229.1	1226.1
x2 = 0.13	1239.8	1236.8	1233.6	1230.6	1227.4	1224.4
x2 = 0.1783	1238.8	1235.7	1232.6	1229.5	1226.3	1223.3
x2 = 0.2168	1237.8	1234.7	1231.5	1228.5	1225.4	1222.3
x2 = 0.2642	1236.4	1233.3	1230.2	1227.1	1223.9	1220.8
x2 = 0.3054	1235	1232	1228.8	1225.8	1222.6	1219.5
x2 = 0.3568	1233	1230	1226.9	1223.9	1220.7	1217.6
x2 = 0.4008	1231.2	1228	1225	1221.9	1218.7	1215.6
x2 = 0.4613	1228.1	1225.2	1222	1218.9	1215.6	–
x2 = 0.5002	1225.9	1222.9	1219.7	1216.6	1213.4	–
x2 = 0.5584	1221.8	1218.8	1215.6	1212.4	1209.2	–
x2 = 0.6124	1217.1	1213.9	1210.8	1207.6	1204.4	–
x2 = 0.6698	1210.7	1207.4	1204.1	1200.9	1197.6	–
x2 = 0.7125	1204.3	1200.8	1197.6	1194.3	1190.9	–
x2 = 0.7635	1194.2	1190.4	1187.1	1184	1180.6	–
x2 = 0.8006	1184.2	1180.5	1177.2	1173.6	1170.3	–
x2 = 0.8497	1165.4	1162.1	1158.8	1155.5	1152.3	–
x2 = 0.8963	1139.3	1135.6	1132.8	1129	1126	–
